From publication PMC5361737, “Potent and Selective KDM5 Inhibitor Stops Cellular Demethylation of H3K4me3 at Transcription Start Sites and Proliferation of MM1S Myeloma Cells” (Cell Chemical Biology, 2017)
Entries after “also recorded” stand apart in the source; their conditions may differ.

Legend:
Na+ channel (site 2) = assay: Cerep Express Panel, antagonist radioligand; format: binding; settings: 10 µM
GABA (non-selective) = assay: Cerep Express Panel, agonist radioligand; format: binding
beta 1 (h) = beta 1 (h) (Homo sapiens, UniProt P08588); assay: Cerep Express Panel, agonist radioligand; format: binding; settings: read-out: % Inhibition of reference (10 µM)
beta 1 (h), sequence (P08588 whole entry): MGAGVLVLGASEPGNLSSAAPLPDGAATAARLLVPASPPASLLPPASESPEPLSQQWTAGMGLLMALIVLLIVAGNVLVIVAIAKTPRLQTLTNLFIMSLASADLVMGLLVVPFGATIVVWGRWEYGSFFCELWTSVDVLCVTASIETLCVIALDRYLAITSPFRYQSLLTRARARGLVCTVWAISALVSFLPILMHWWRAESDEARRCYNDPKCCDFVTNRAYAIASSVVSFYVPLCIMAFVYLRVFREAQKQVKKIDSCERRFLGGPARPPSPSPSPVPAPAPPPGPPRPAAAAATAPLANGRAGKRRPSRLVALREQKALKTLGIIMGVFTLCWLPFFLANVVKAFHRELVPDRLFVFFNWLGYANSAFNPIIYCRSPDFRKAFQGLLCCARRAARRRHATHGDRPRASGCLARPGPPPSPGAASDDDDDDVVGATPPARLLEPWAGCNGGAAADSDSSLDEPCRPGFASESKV

MT1 (ML1A) (h) = MT1 (ML1A) (h) (Homo sapiens, UniProt P48039); assay: Cerep Express Panel, agonist radioligand; format: binding; settings: read-out: % Inhibition of reference (10 µM)
FIH = FIH (Homo sapiens, UniProt Q9NWT6); assay: 2-Oxoglutarate oxygenase assay panel, MALDI-TOF assay; format: biochemical
MC4 (h) = MC4 (h) (Homo sapiens, UniProt P32245); assay: Cerep Express Panel, agonist radioligand; format: binding; settings: read-out: % Inhibition of reference (10 µM)
MC4 (h), sequence (P32245 whole entry): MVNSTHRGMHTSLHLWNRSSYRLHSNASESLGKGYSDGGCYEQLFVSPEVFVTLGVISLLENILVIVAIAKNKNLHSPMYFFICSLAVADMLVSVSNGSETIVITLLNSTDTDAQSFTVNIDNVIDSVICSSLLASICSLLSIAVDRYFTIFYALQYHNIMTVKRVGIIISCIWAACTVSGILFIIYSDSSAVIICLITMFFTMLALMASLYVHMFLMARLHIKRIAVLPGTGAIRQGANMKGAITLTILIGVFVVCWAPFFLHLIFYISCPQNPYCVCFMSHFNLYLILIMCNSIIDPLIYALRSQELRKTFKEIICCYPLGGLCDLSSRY

KDM2A = target: T1, KDM2A (Homo sapiens, UniProt Q9Y2K7); assay: 2-Oxoglutarate oxygenase assay panel, AlphaScreen assay; format: biochemical; settings: refers to Table S1
T1 sequence (Q9Y2K7 1-1162): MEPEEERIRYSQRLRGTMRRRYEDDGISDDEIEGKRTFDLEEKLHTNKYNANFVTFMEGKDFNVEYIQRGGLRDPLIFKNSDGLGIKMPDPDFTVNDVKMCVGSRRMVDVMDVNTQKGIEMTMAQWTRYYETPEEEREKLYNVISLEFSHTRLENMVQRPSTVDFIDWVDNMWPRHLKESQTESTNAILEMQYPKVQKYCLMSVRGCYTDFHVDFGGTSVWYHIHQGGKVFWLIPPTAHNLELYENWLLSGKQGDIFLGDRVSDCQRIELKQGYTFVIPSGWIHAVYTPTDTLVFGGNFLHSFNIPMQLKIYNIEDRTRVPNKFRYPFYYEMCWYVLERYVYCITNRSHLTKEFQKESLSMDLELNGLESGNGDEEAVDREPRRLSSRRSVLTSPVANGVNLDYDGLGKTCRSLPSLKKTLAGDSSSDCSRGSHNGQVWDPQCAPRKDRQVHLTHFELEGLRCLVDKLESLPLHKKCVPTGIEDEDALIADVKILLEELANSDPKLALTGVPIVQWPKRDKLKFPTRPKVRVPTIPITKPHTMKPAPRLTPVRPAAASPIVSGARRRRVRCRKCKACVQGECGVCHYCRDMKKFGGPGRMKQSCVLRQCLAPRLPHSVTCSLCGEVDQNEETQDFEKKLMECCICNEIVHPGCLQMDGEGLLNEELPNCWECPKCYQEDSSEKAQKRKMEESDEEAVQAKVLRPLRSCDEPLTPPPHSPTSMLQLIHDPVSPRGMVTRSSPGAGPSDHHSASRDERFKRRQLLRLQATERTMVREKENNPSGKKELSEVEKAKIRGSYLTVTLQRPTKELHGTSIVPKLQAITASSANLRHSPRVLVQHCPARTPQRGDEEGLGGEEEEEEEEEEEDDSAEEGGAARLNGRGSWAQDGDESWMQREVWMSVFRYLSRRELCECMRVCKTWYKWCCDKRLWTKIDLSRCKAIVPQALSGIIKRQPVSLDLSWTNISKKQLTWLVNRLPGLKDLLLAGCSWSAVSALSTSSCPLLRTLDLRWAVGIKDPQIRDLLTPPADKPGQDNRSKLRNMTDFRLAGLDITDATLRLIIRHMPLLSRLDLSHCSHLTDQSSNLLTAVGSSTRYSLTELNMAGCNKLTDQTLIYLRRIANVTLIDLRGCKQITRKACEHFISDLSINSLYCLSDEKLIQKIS

NOP (ORL1) (h) = NOP (ORL1) (h) (Homo sapiens, UniProt P41146); assay: Cerep Express Panel, agonist radioligand; format: binding; settings: read-out: % Inhibition of reference (10 µM)
beta 2 (h) = beta 2 (h) (Homo sapiens, UniProt P07550); assay: Cerep Express Panel, agonist radioligand; format: binding; settings: read-out: % Inhibition of reference (10 µM)
beta 2 (h), sequence (P07550 whole entry): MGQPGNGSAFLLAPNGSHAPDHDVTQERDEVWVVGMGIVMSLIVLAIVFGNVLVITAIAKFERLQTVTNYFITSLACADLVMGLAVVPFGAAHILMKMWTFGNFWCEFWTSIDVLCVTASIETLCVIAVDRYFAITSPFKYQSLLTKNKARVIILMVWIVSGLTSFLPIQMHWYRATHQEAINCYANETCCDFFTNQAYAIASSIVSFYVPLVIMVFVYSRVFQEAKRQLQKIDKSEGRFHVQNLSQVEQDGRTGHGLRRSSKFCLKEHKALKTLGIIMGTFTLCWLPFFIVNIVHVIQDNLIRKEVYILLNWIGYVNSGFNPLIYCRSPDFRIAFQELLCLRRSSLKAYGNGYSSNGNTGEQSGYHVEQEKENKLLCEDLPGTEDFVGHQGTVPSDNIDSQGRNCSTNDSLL

Y1 (h) = Y1 (h) (Homo sapiens, UniProt P25929); assay: Cerep Express Panel, agonist radioligand; format: binding; settings: read-out: % Inhibition of reference (10 µM)
B2 (h) = B2 (h) (Homo sapiens, UniProt P30411); assay: Cerep Express Panel, agonist radioligand; format: binding; settings: read-out: % Inhibition of reference (10 µM)
B2 (h), sequence (P30411 whole entry): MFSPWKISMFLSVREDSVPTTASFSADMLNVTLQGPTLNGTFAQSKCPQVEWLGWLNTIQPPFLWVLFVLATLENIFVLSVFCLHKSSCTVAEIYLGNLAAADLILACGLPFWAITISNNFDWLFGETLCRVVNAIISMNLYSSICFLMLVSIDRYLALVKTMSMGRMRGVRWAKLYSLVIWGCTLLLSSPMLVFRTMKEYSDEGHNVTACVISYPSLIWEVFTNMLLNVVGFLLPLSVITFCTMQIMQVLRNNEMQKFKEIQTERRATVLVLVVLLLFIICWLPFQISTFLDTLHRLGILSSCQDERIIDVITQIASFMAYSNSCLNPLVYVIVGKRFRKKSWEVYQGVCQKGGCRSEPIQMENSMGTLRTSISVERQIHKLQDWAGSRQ

Y2 (h) = Y2 (h) (Homo sapiens, UniProt P49146); assay: Cerep Express Panel, agonist radioligand; format: binding; settings: read-out: % Inhibition of reference (10 µM)
Y2 (h), sequence (P49146 whole entry): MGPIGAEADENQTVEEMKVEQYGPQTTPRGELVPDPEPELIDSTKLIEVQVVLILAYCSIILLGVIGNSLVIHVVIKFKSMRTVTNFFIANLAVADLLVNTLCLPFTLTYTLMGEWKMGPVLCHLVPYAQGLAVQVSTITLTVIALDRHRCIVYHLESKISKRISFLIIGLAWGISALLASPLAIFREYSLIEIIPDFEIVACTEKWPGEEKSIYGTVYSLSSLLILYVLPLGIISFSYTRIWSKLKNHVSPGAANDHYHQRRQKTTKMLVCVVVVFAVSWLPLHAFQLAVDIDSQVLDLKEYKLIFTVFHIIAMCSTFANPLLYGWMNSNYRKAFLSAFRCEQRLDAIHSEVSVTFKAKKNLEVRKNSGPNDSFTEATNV

CCK1 (CCKA) (h) = CCK1 (CCKA) (h) (Homo sapiens, UniProt P32238); assay: Cerep Express Panel, agonist radioligand; format: binding; settings: read-out: % Inhibition of reference (10 µM)
CCR1 (h) = target: T2, CCR1 (h) (Homo sapiens, UniProt P32246); assay: Cerep Express Panel, agonist radioligand; format: binding; settings: read-out: % Inhibition of reference (10 µM)
T2 sequence (P32246 1-355): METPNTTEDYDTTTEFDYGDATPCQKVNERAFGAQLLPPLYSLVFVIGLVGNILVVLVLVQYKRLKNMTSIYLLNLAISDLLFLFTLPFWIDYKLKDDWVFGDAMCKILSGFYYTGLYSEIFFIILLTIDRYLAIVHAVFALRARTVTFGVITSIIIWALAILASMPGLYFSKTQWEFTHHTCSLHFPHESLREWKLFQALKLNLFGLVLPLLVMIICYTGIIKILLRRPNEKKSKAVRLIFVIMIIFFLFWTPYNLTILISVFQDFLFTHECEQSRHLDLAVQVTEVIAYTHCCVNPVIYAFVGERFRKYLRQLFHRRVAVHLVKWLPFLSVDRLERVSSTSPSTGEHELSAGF

SKCa channel = assay: Cerep Express Panel, antagonist radioligand; format: binding
[1] = target: T3, norepinephrine transporter (h) (Homo sapiens, UniProt P23975); assay: Cerep Express Panel, antagonist radioligand; format: binding; settings: read-out: % Inhibition of reference (10 µM)
T3 construct: CEREP
T3 sequence (P23975 whole entry): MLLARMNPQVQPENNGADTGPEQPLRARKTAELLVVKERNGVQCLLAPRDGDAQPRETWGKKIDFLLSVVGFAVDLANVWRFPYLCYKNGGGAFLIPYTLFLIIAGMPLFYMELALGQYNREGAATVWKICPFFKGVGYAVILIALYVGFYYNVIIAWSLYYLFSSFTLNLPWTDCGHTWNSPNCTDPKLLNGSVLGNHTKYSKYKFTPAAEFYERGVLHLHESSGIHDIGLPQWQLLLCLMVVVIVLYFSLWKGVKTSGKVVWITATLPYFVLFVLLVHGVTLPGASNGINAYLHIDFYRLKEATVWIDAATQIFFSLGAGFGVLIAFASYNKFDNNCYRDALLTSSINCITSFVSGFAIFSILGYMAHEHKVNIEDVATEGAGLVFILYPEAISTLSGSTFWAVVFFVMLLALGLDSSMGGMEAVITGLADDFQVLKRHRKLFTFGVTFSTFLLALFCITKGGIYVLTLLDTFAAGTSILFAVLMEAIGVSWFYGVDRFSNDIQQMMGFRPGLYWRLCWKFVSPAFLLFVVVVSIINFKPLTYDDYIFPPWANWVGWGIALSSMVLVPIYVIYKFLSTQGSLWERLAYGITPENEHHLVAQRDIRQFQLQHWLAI

A1 (h) = A1 (h) (Homo sapiens, UniProt P30542); assay: Cerep Express Panel, antagonist radioligand; format: binding; settings: read-out: % Inhibition of reference (10 µM)
5-HT2A (h) = 5-HT2A (h) (Homo sapiens, UniProt P28223); assay: Cerep Express Panel, antagonist radioligand; format: binding; settings: read-out: % Inhibition of reference (10 µM)
5-HT2A (h), sequence (P28223 whole entry): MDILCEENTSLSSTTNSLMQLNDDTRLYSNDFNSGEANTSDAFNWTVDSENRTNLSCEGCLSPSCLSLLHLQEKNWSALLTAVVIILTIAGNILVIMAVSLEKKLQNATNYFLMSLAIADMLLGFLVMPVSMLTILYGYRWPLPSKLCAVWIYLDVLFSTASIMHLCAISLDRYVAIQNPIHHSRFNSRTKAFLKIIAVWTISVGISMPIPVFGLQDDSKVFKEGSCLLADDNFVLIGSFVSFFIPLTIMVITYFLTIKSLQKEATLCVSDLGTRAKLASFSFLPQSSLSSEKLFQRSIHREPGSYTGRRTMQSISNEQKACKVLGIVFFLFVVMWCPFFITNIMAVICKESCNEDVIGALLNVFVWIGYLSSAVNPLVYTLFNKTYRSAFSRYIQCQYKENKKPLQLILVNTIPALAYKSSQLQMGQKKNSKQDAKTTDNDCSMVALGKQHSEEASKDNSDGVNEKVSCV

[2] = system: range of other multiple myeloma cell lines; assay: Cell viability, other multiple myeloma cell lines; format: cell-based; settings: treated for 7 days
Excerpt: Figure S2 related to Figure 1 KDM5B Biochemical assay at different 2 -OG
Stem Cells (B) treated for 7 days. Data plotted represents the mean and standard deviation of four independent
2OG Concentration IC50 (mM) Ki […]

Cl- channel (GABA-gated) = assay: Cerep Express Panel, antagonist radioligand; format: binding
KDM3B = KDM3B (Homo sapiens, UniProt Q7LBC6); assay: 2-Oxoglutarate oxygenase assay panel, AlphaScreen assay; format: biochemical; settings: ± SEM
KDM3B, sequence (Q7LBC6 whole entry): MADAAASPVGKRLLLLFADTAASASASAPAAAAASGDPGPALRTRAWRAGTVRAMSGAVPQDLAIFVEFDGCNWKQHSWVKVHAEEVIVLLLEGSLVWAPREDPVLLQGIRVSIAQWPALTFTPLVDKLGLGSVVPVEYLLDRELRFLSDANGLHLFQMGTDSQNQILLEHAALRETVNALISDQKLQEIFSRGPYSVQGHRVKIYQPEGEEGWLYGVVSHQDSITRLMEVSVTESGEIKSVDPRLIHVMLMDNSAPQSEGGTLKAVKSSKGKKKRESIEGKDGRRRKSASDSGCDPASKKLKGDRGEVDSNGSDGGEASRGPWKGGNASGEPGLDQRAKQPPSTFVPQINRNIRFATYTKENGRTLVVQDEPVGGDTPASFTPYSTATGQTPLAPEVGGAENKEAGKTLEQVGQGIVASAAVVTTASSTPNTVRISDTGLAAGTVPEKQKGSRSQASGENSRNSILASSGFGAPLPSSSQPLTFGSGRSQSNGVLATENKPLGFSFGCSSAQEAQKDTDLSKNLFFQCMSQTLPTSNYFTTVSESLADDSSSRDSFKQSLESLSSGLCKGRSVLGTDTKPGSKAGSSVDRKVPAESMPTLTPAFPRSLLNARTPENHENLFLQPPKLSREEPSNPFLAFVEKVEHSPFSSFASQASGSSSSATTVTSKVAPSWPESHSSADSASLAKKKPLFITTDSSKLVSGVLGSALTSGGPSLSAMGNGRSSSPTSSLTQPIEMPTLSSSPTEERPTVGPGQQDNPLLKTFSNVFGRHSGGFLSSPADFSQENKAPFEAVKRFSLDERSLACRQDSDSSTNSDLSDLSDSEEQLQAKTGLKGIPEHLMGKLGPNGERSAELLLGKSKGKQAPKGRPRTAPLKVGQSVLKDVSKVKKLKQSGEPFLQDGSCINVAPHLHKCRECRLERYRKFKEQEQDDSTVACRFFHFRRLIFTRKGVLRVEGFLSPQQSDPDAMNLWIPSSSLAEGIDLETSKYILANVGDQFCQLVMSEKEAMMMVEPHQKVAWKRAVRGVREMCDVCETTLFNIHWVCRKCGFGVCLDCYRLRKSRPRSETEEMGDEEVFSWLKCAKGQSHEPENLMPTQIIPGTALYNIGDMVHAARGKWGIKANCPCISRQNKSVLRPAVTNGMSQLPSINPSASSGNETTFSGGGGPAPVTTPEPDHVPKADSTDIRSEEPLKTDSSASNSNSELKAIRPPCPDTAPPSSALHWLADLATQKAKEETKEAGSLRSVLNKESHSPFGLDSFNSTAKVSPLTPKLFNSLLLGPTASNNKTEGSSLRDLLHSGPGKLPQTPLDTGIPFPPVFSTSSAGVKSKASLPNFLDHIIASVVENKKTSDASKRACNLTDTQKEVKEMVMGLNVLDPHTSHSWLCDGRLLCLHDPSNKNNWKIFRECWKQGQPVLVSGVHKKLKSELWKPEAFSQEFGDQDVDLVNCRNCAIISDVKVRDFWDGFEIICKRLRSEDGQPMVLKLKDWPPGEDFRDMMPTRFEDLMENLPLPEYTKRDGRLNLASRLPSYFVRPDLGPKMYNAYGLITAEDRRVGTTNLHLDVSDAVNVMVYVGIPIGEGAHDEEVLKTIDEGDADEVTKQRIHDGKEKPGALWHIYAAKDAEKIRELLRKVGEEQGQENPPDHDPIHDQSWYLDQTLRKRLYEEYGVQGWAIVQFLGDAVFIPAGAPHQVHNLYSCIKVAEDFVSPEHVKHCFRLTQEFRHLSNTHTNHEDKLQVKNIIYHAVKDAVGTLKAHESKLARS

Q: What does the source list for `CCN(CCN(C)C)C(=O)CNCc1cc(C(N)=O)ccn1` [KDOAM-25]?
A: % Inhibition of reference (10 µM) (Na+ channel (site 2)): 7%; % Inhibition of reference (10 µM) (GABA (non-selective)): -4%; inhibition at 10 µM (beta 1 (h)): 5%; inhibition at 10 µM (MT1 (ML1A) (h)): 5%; IC50 (FIH): > 100 µM; inhibition at 10 µM (MC4 (h)): 5%; KDM2A IC50 (KDM2A): 4.4 µM; inhibition at 10 µM (NOP (ORL1) (h)): -5%; inhibition at 10 µM (beta 2 (h)): 5%; inhibition at 10 µM (Y1 (h)): -7%; inhibition at 10 µM (B2 (h)): -10%; inhibition at 10 µM (Y2 (h)): -1%; inhibition at 10 µM (CCK1 (CCKA) (h)): -3%; inhibition at 10 µM (CCR1 (h)): -8%; % Inhibition of reference (10 µM) (SKCa channel): 5%; inhibition at 10 µM [1]: -6%; inhibition at 10 µM (A1 (h)): -3%; inhibition at 10 µM (5-HT2A (h)): -6%; effect on viability of other multiple myeloma cells [2]: does not decrease cell viability; also recorded: did not show the same decrease in viability; % Inhibition of reference (10 µM) (Cl- channel (GABA-gated)): -2%; pIC50 KDM3 B (KDM3B): 4.1 ± 0.65
